Assay type in all cases: cell-based
The subject of test [1] is Staphylococcus aureus OC4172. The test can be described thus: In vitro antibacterial activity (MIC), microdilution broth method, strain A. The note with it: cation adjusted Mueller-Hinton broth, 35° C., 16-20 hours. Here is the method:
(§1) Minimal inhibitory concentration (MIC) is an indicator of in vitro antibacterial activity. […] The in vitro antimicrobial activity of representative compounds of the present invention was determined by the microdilution broth method following the test method from the National Committee for Clinical Laboratory Standards (NCCLS). This method is described in the NCCLS Document M7-A4, Vol. 17, No. 2, “Methods for Dilution Antimicrobial Susceptibility Test for Bacteria that Grow Aerobically—Fourth Edition”, which is incorporated herein by reference.
(§2) In this method two-fold serial dilutions of drug in cation adjusted Mueller-Hinton broth were added to wells in microdilution trays. The test organisms were prepared by adjusting the turbidity of actively growing broth cultures so that the final concentration of test organism after it is added to the wells was approximately 5×10^4 CFU/well. Following inoculation of the microdilution trays, the trays were incubated at 35° C. for 16-20 hours and then read. The amount of growth in the wells containing the test compound was compared with the amount of growth in the growth-control wells (no test compound) used in each tray.
(§3) Representative compounds of the present invention were tested against a variety of pathogenic bacteria with results as listed in Table 3, below.

The subject of test [2] is strain B, fluoroquinolone-resistant clinical isolate of Streptococcus pneumoniae. As to the kind of experiment: In vitro antibacterial activity (MIC), microdilution broth method, strain B. The note with it: read-out: MIC (μg/mL) B. Here is the method:
as §1, §2, §3
Background: Broth dilution looks for growth in wells or tubes with falling amounts of substance.

The subject of test [3] is strain C, fluoroquinolone-resistant clinical isolate of Streptococcus pneumoniae. As to the kind of experiment: In vitro antibacterial activity (MIC), microdilution broth method, strain C. To be noted: read-out: MIC (μg/mL) C. The method, then:
as §1, §2, §3

The test system of test [4] is strain D, fluoroquinolone-resistant clinical isolate of Streptococcus pneumoniae. The test can be described thus: In vitro antibacterial activity (MIC), microdilution broth method, strain D. The note with it: read-out: MIC (μg/mL) D. Here is the method:
as §1, §2, §3

The subject of test [5] is Streptococcus pneumoniae ATCC 49619. As to the kind of experiment: In vitro antibacterial activity (MIC), microdilution broth method, strain E. The note with it: ATCC49619, 35° C., 16-20 hours. The method, then:
as §1, §2, §3

Values after ≈ are worked out from the molar mass of the structure shown. Bounds are passed on as bounds.

Consider `COc1c(-c2cc3n(c2)C[C@H](C)N[C@@H]3C)c(F)cc2c(=O)c(C(=O)O)cn(C3CC3)c12` [Compound 18, 1-Cyclopropyl-7-(1R,3S-dimethyl-1,2,3,4-tetrahydro-pyrrolo[1,2-a]pyrazin-7-yl)-6-fluoro-8-methoxy-4-oxo-1,4-dihydro-quinoline-3-carboxylic acid], for which the MIC in test [1] is 0.12 µg/mL (≈ 0.282 µM); in test [2], 2 µg/mL (≈ 4.7 µM); in test [3], 8 µg/mL (≈ 18.8 µM); in test [4] it was 16 µg/mL (≈ 37.6 µM); in test [5], 1 µg/mL (≈ 2.35 µM).
The like results for `C[C@H]1Cn2cc(-c3cc4c(cc3F)c(=O)c(C(=O)O)cn4C3CC3)cc2CN1` [Compound 19, 1-Cyclopropyl-6-fluoro-7-(3S-methyl-1,2,3,4-tetrahydro-pyrrolo[1,2-a]pyrazin-7-yl)-4-oxo-1,4-dihydro-quinoline-3-carboxylic acid] were, in that order, 0.06 µg/mL (≈ 0.157 µM), 2 µg/mL (≈ 5.24 µM), 4 µg/mL (≈ 10.5 µM), more than 16 µg/mL and 0.5 µg/mL (≈ 1.31 µM).
`C[C@H]1Cn2cc(-c3cc4c(cc3F)c(=O)c(C(=O)O)cn4C3CC3)cc2CN1C` [Compound 20, 1-Cyclopropyl-7-(2,3S-dimethyl-1,2,3,4-tetrahydro-pyrrolo[1,2-a]pyrazin-7-yl)-6-fluoro-4-oxo-1,4-dihydro-quinoline-3-carboxylic acid]: the MIC in test [1] is 0.5 µg/mL (≈ 1.26 µM); in test [2] it was 4 µg/mL (≈ 10.1 µM); in test [3], 16 µg/mL (≈ 40.5 µM); in test [4] it was more than 16 µg/mL; in test [5], 1 µg/mL (≈ 2.53 µM).
The like results for `C[C@@H]1NCCn2cc(-c3cc4c(cc3F)c(=O)c(C(=O)O)cn4C3CC3)cc21` [Compound 21, 1-Cyclopropyl-6-fluoro-7-(1S-methyl-1,2,3,4-tetrahydro-pyrrolo[1,2-a]pyrazin-7-yl)-4-oxo-1,4-dihydro-quinoline-3-carboxylic acid] were, in that order, 0.25 µg/mL (≈ 0.655 µM), 4 µg/mL (≈ 10.5 µM), 16 µg/mL (≈ 41.9 µM), 16 µg/mL (≈ 41.9 µM) and 1 µg/mL (≈ 2.62 µM).
Turning to `C[C@H]1NCCn2cc(-c3cc4c(cc3F)c(=O)c(C(=O)O)cn4C3CC3)cc21` [Compound 22, 1-Cyclopropyl-6-fluoro-7-(1R-methyl-1,2,3,4-tetrahydro-pyrrolo[1,2-a]pyrazin-7-yl)-4-oxo-1,4-dihydro-quinoline-3-carboxylic acid], the MIC in test [1] is 0.25 µg/mL (≈ 0.655 µM); in test [2] it was 4 µg/mL (≈ 10.5 µM); in test [3] it was 16 µg/mL (≈ 41.9 µM); in test [4] it was more than 16 µg/mL; in test [5], 1 µg/mL (≈ 2.62 µM).
For `C[C@H]1Cn2cc(-c3c(F)cc4c(=O)c(C(=O)O)cn5c4c3OC[C@@H]5C)cc2CN1` [Compound 23, 8-Fluoro-3S-methyl-9-(3S-methyl-1,2,3,4-tetrahydro-pyrrolo[1,2-a]pyrazin-7-yl)-6-oxo-2,3-dihydro-6H-1-oxa-3a-aza-phenalene-5-carboxylic acid], the MIC in test [1] turned out to be 0.25 µg/mL (≈ 0.629 µM); in test [2] it was 4 µg/mL (≈ 10.1 µM); in test [3], 8 µg/mL (≈ 20.1 µM); in test [4], 16 µg/mL (≈ 40.3 µM); in test [5] it was 1 µg/mL (≈ 2.52 µM).
On the same counts, the results for `C[C@@H]1NCCn2cc(-c3c(F)cc4c(=O)c(C(=O)O)cn5c4c3OC[C@@H]5C)cc21` [Compound 24, 8-Fluoro-3S-methyl-9-(1S-methyl-1,2,3,4-tetrahydro-pyrrolo[1,2-a]pyrazin-7-yl)-6-oxo-2,3-dihydro-6H-1-oxa-3a-aza-phenalene-5-carboxylic acid] are 0.25 µg/mL (≈ 0.629 µM), 4 µg/mL (≈ 10.1 µM), 8 µg/mL (≈ 20.1 µM), 16 µg/mL (≈ 40.3 µM) and 1 µg/mL (≈ 2.52 µM).
On the same counts, the results for `C[C@H]1Cn2cc(-c3nc4c(cc3F)c(=O)c(C(=O)O)cn4C3CC3)cc2CN1` [Compound 25, 1-Cyclopropyl-6-fluoro-7-(3S-methyl-1,2,3,4-tetrahydro-pyrrolo[1,2-a]pyrazin-7-yl)-4-oxo-1,4-dihydro-[1,8]naphthyridine-3-carboxylic acid] are 0.06 µg/mL (≈ 0.157 µM), 2 µg/mL (≈ 5.23 µM), 8 µg/mL (≈ 20.9 µM), 8 µg/mL (≈ 20.9 µM) and 0.5 µg/mL (≈ 1.31 µM).
On the same counts, the results for `C[C@@H]1NCCn2cc(-c3nc4c(cc3F)c(=O)c(C(=O)O)cn4C3CC3)cc21` [Compound 26, 1-Cyclopropyl-6-fluoro-7-(1S-methyl-1,2,3,4-tetrahydro-pyrrolo[1,2-a]pyrazin-7-yl)-4-oxo-1,4-dihydro-[1,8]naphthyridine-3-carboxylic acid] are 0.5 µg/mL (≈ 1.31 µM), 8 µg/mL (≈ 20.9 µM), 8 µg/mL (≈ 20.9 µM), 16 µg/mL (≈ 41.8 µM) and 1 µg/mL (≈ 2.62 µM).
As to `C[C@H]1Cn2cc(-c3nc4c(cc3F)c(=O)c(C(=O)O)cn4-c3ccc(F)cc3F)cc2CN1` [Compound 27, 1-(2,4-Difluoro-phenyl)-6-fluoro-7-(3S-methyl-1,2,3,4-tetrahydro-pyrrolo[1,2-a]pyrazin-7-yl)-4-oxo-1,4-dihydro-[1,8]naphthyridine-3-carboxylic acid], the MIC in test [1] is 0.12 µg/mL (≈ 0.264 µM); in test [2], 16 µg/mL (≈ 35.2 µM); in test [3], 16 µg/mL (≈ 35.2 µM); in test [4], more than 16 µg/mL; in test [5], 1 µg/mL (≈ 2.2 µM).
On to `C[C@@H]1NCCn2cc(-c3nc4c(cc3F)c(=O)c(C(=O)O)cn4-c3ccc(F)cc3F)cc21` [Compound 28, 1-(2,4-Difluoro-phenyl)-6-fluoro-7-(1S-methyl-1,2,3,4-tetrahydro-pyrrolo[1,2-a]pyrazin-7-yl)-4-oxo-1,4-dihydro-[1,8]naphthyridine-3-carboxylic acid], for which the MIC in test [1] was 1 µg/mL (≈ 2.2 µM); in test [2], 16 µg/mL (≈ 35.2 µM); in test [3], more than 16 µg/mL; in test [4] it was more than 16 µg/mL; in test [5], 4 µg/mL (≈ 8.8 µM).
For `C[C@@H]1NCCn2cc(-c3c(F)cc4c(=O)c(C(=O)O)cn(C5CC5)c4c3OC(F)F)cc21` [Compound 29, 1-Cyclopropyl-8-difluoromethoxy-6-fluoro-7-(1S-methyl-1,2,3,4-tetrahydro-pyrrolo[1,2-a]pyrazin-7-yl)-4-oxo-1,4-dihydro-quinoline-3-carboxylic acid], the MIC in test [1] was 0.25 µg/mL (≈ 0.559 µM); in test [2], 1 µg/mL (≈ 2.24 µM); in test [3] it was 8 µg/mL (≈ 17.9 µM); in test [4] it was 16 µg/mL (≈ 35.8 µM); in test [5], 2 µg/mL (≈ 4.47 µM).
On the same counts, the results for `O=C(O)c1cn(-c2ccc(F)cc2F)c2nc(-c3cc4n(c3)CCN(Cc3ccccc3)C4)c(F)cc2c1=O` [Compound 30, 7-(2-Benzyl-1,2,3,4-tetrahydro-pyrrolo[1,2-a]pyrazin-7-yl)-1-(2,4-difluoro-phenyl)-6-fluoro-4-oxo-1,4-dihydro-[1,8]naphthyridine-3-carboxylic acid] are 2 µg/mL (≈ 3.77 µM), 8 µg/mL (≈ 15.1 µM), 8 µg/mL (≈ 15.1 µM), 16 µg/mL (≈ 30.2 µM) and 8 µg/mL (≈ 15.1 µM).
In the case of `COc1c(-c2cc3n(c2)CCN(Cc2ccccc2)C3)c(F)cc2c(=O)c(C(=O)O)cn(C3CC3)c12` [Compound 31, 7-(2-Benzyl-1,2,3,4-tetrahydro-pyrrolo[1,2-a]pyrazin-7-yl)-1-cyclopropyl-6-fluoro-8-methoxy-4-oxo-1,4-dihydro-quinoline-3-carboxylic acid], the MIC in test [1] is 0.25 µg/mL (≈ 0.513 µM); in test [2], 8 µg/mL (≈ 16.4 µM); in test [3] it was more than 16 µg/mL; in test [4], more than 16 µg/mL; in test [5], 2 µg/mL (≈ 4.1 µM).
Turning to `COc1c(C2=C[C@H]3CNCCN3C2)c(F)cc2c(=O)c(C(=O)O)cn(C3CC3)c12` [Compound 32, 1-Cyclopropyl-6-fluoro-7-(1,2,3,4,6,8a-hexahydro-pyrrolo[1,2S-a]pyrazin-7-yl)-8-methoxy-4-oxo-1,4-dihydro-quinoline-3-carboxylic acid], the MIC in test [1] is 0.25 µg/mL (≈ 0.626 µM); in test [2], 16 µg/mL (≈ 40.1 µM); in test [3] it was more than 16 µg/mL; in test [4], 16 µg/mL (≈ 40.1 µM); in test [5], 2 µg/mL (≈ 5.01 µM).
As to `C[C@H]1COc2c(C3=C[C@H]4CNCCN4C3)c(F)cc3c(=O)c(C(=O)O)cn1c23` [Compound 33, 8-Fluoro-9-(1,2,3,4,6,8a-hexahydro-pyrrolo[12-a]pyrazin-7-yl)-3S-methyl-6-oxo-2,3-dihydro-6H-1-oxa-3a-aza-phenalene-5-carboxylic acid], the MIC in test [1] is 0.25 µg/mL (≈ 0.649 µM); in test [2], more than 16 µg/mL; in test [3], more than 16 µg/mL; in test [4], more than 16 µg/mL; in test [5], 2 µg/mL (≈ 5.19 µM).
In the case of `COc1c(-c2cc3n(c2)CCNC3)c(F)cc2c(=O)c(C(=O)O)cn(C3CC3)c12` [Compound 34, 1-Cyclopropyl-6-fluoro-8-methoxy-4-oxo-7-(1,2,3,4-tetrahydro-pyrrolo[1,2-a]pyrazin-7-yl)-1,4-dihydro-quinoline-3-carboxylic acid], the MIC was 0.03 µg/mL (≈ 0.0755 µM) in test [1]; 1 µg/mL (≈ 2.52 µM) in test [2]; 1 µg/mL (≈ 2.52 µM) in test [3]; 1 µg/mL (≈ 2.52 µM) in test [4]; 0.25 µg/mL (≈ 0.629 µM) in test [5].

The values above are taken from patent US20090270379A1, “QUINOLONE DERIVATIVES USEFUL AS ANTIBACTERIAL AGENTS” (priority 2008, published 2009).
